In patent US20130123185A1, “METHODS OF TREATING AND DIAGNOSING ACUTE CHEST SYNDROME” (EMORY UNIVERSITY, priority 2010, published 2013):
Like-named read-outs stand apart in the source and are kept apart here.

Columns and labels:
[1] = system: C57BL/6J, B6.B10ScN-Tlr4lps-del/JthJ and C3H/HeJ mice; assay type: in vivo
Procedure: The role of TLR-4 in response to an acute increase in free heme was investigated. Wild type C57BL/6J mice and TLR-4 mutant mice B6.B10ScN-Tlr4^lps-del and C3H/HeJ (Poltorak et al. Defective LPS signaling in C3H/HeJ and C57BL/10ScCr mice: mutations in Tlr4 gene. Science. 1998; 282(5396):2085-2088.; Qureshi et al. Endotoxin-tolerant mice have mutations in Toll-like receptor 4 (Tlr4). The J Expt. Med. 1999; 189(4):615-625) were injected intravenously with 210 μmoles/kg hemin, a normally lethal dose. This injection increased free heme concentrations by a magnitude of 50-fold in both wild type and TLR-4 mutant mice (FIG. 6a).
TPH per se, therefore, the involvement of a receptor mediated mechanism was suspected. Several heme receptors have been characterized, including TLR433, which is uniquely expressed by multiple cells in the circulation and therefore accessible to PFPH. Studies were performed in wild-type C57BL/6J mice, and mutant strains, B6.B10ScN-Tlr4lps-del/JthJ and C3H/HeJ, harboring a deletion and a point mutation respectively, in the murine TLR4 gene. Significant elevation of PFPH in these mice required a large dose of heme (210 μmoles/kg) (FIG. 12a), and as expected this amount of heme interfered, transiently with SpO2 measurements characterized by an immediate and dramatic decline. […] This interpretation was supported by a return of SpO2 values to normal in C3H/HeJ but not in the wild-type C57BL/6J mice, indeed, SpO2 deteriorated over time in the latter reminiscent of the decline in SS mice (FIG. 12b). […] These unique pulmonary responses were consistent with survival (FIG. 12d) and lung histology (FIG. 13).

[2] = system: non-sickle cell disease mice; settings: hemin 70 μmoles/kg, Vinchi et al.; cited from earlier work
SS mice [3] = system: SS mice
NF-κB = NF-κB activation in pulmonary microvascular endothelial cells; assay type: cell-based; settings: PMVECs, hemin 5 or 10 μM
Source text: Additionally, the role of NF-κB in the inflammatory response to free heme that occurs in ACS was investigated. Endothelial TLR4, and not neutrophil TLR4, mediates the early stage of the acute sequestration of neutrophils into the lungs in response to systemic LPS (Andonegui et al. Endothelium-derived Toll-like receptor-4 is the key molecule in LPS-induced neutrophil sequestration into lungs. J Clin Invest. 2003; 111(7):1011-1020; Andonegui et al. Mice that exclusively express TLR4 on endothelial cells can efficiently clear a lethal systemic Gram-negative bacterial infection. J Clin Invest. 2009; 119(7): 1921-1930). Thus, pulmonary microvascular endothelial cells (PMVECs) may play a role in the inflammatory response to free heme. […] These include nuclear translocation of p65 NF-κB in PMVECs as determined by immunofluorescence staining and western blot of nuclear extract (FIGS. 7b and 7c, respectively), luciferase reporter gene activity driven by a promoter harboring NF-κB cis elements in PMVECs (FIG. 7d), and TNF-α production (FIG. 7e).

SS mice [4] = experiment: TAK-242 pre-treatment before heme in SS mice; assay type: in vivo, mouse
Procedure: (a, b) The concentration of total and protein-free plasma heme in SS mice following, injections of TAK-242 or intralipid in the absence of exogenous heme. (c, d) Percentage oxygen saturation and breath rate monitored in real-time in SS mice at different stages of the experiment as indicated. Data shown are for a total of nine SS mice (intralipid; n=4, TAK-242; n=5). (e) Survival of SS mice pre-treated with TAK-242 (3 or 5 mg/kg) for 1 h prior to intravenous administration of heme (n=7-13). Control mice were treated with intralipid (n=17). (f) Representative lung H&E staining of SS mice treated with intralipid or TAK-242 one hour prior to administration of heme (35 μmoles/kg). Cumulative lung injury score (n=3). *p<0.05, **p<0.01 and ***p<0.001.
TAK-242 (resatorvid) is a small molecule that binds to Cys747 of the intracellular domain of TLR4 and inhibits downstream signaling. It inhibits the production of lipopolysaccharide (LPS)-induced inflammatory mediators, and it improves survival in LPS-induced sepsis. […] One hour prior to heme administration, a cohort of SS mice were intravenously administered 5 mg/kg of TAK-242, or intralipid. […] Heme had no impact on SpO2 in the majority of TAK-242 treated SS mice (5/6), however it caused an initially subtle yet sustained decrease that deteriorated over time in the intralipid treated mice (FIG. 14c). […] TAK-242 protected 83% of the SS mice from heme induced lethality, compared to 20% in the group given intralipid. These survival data were similar to those obtained in subsequent experiments focused on heme induced lethality (TAK-242; 5/7 (71%) protection, intralipid; 3/12 […] protection). The combined data is shown in FIG. 14e, and is supported by histological analysis (FIG. 14f).

SS mice [5] = experiment: Acute prophylaxis with recombinant human hemopexin before heme in SS mice; assay type: in vivo, mouse; settings: 1 mg intravenously immediately before heme 35 μmoles/kg
Procedure: Mice were injected with rhHx (n=6), vehicle (n=5) or human IgG (n=3) immediately before administration of heme (35 μmoles/kg). *p<0.05, **p<0.01 and ***p<0.001.
The hemopexin-treated mice were all protected while the control mice succumbed to heme (FIG. 11). Thus, acute prophylaxis using hemopexin may be an attractive therapeutic strategy to block the deleterious effects of PFPH during severe episodes of acute hemolysis in SCD.

## C=CC1=C(C)c2cc3[nH]c(cc4[nH]c(cc5nc(cc1n2)C(C)=C5C=C)c(C)c4CCC(=O)[O-])c(CCC(=O)[O-])c3C.[Na+].[Na+] [Na-PPIX, sodium protoporphyrin IX]
[1]; injected at the LD100 of heme, C57BL/6J mice
  survival: no impact on survival

## Fe(III)PPIX [hemin]
[1]; hemin 210 μmoles/kg, both types of TLR-4 mutant mice
  mortality: 0%
[1]; hemin 210 μmoles/kg, wild type C57BL/6J mice, after 90 minutes
  mortality rate: 100%
[2]
  increase of lung permeability: 2 fold
SS mice [3]; SS mice treated with heme, at the median time of death
  serum ALT: normal
SS mice [3]; SS mice, heme 35 μmoles/kg, 5-30 min
  plasma hemopexin level after heme injection: virtually undetectable levels
SS mice [3]; heme 35 μmoles/kg, SS mice with the highest baseline hemopexin level
  survival: 50%
SS mice [3]; heme 35 μmoles/kg, SS mice with the lowest baseline hemopexin (<0.1 mg/ml)
  survival: none
SS mice [3]; heme 70 μmoles/kg, AS and AA mice
  survival: no impact on survival
SS mice [3]; heme 17.5-70 μmoles/kg intravenously, SS mice
  total plasma heme (TPH) and protein-free plasma heme (PFPH): raised TPH and PFPH in a dose-dependent manner
SS mice [3]; heme 17.5-70 μmoles/kg, SS mice
  lethality: caused lethality in SS mice in a dose-dependent manner
SS mice [3]; hemin 70 μmoles/kg intravenous, SS mice
  oxygen saturation (SpO2): sharp drop
SS mice [3]; hemin 70 μmoles/kg intravenously, SS and control mice
  increase of plasma concentration of heme: 20 fold
SS mice [3]; hemin 70 μmoles/kg, AS mice
  change in SpO2 or breath rate: no significant change
SS mice [3]; hemin 70 μmoles/kg, SS or control mice
  change in hematocrit: did not significantly change
SS mice [3]; hemin 70 μmoles/kg, Townes and Berkeley SCD mice
  lethality: caused sudden death
SS mice [3]; hemin 70 μmoles/kg, adult SS mice aged 13-27 weeks
  mortality: 100%
SS mice [3]; hemin 70 μmoles/kg, young SS mice 5-7 weeks old
  survival: 80%
NF-κB
  NF-κB activation (p65 nuclear translocation, luciferase reporter, TNF-α production): dose-dependently activates

## Iron mesoporphyrin [Fe(III)MPP-IX]
[1]; mouse, in vivo
  survival: no impact on survival

## CCOC(=O)C1=CCCC[C@H]1S(=O)(=O)Nc1ccc(F)cc1Cl [TAK-242, resatorvid]
SS mice [4]; SCD mice, pre-treatment 1 h before heme
  development of heme induced ALI: prevents
SS mice [4]; SS mice, absence of exogenous heme
  scavenging of heme (total and protein-free plasma heme): did not alter
SS mice [4]; TAK-242 5 mg/kg 1 h before heme, SS mice, first cohort
  protection from heme induced lethality: 83%
SS mice [4]; TAK-242 5 mg/kg intravenously 1 h before heme
  SS mice in which heme had no impact on SpO2: 5/6
SS mice [4]; TAK-242 5 mg/kg intravenously 1 h before heme, SS mice
  breath rate after heme: remained essentially the same
SS mice [4]; subsequent experiments focused on lethality, SS mice
  protection from heme induced lethality: 71%

B1: recombinant human hemopexin: recombinant human hemopexin, a protein that binds free heme for transport to the liver (protein, UniProt P02790 24-462, looked up)
Hemopexin: TPLPPTSAHGNVAEGETKPDPDVTERCSDGWSFDATTLDDNGTMLFFKGEFVWKSHKWDRELISERWKNFPSPVDAAFRQGHNSVFLIKGDKVWVYPPEKKEKGYPKLLQDEFPGIPSPLDAAVECHRGECQAEGVLFFQGDREWFWDLATGTMKERSWPAVGNCSSALRWLGRYYCFQGNQFLRFDPVRGEVPPRYPRDVRDYFMPCPGRGHGHRNGTGHGNSTHHGPEYMRCSPHLVLSALTSDNHGATYAFSGTHYWRLDTSRDGWHSWPIAHQWPQGPSAVDAAFSWEEKLYLVQGTQVYVFLTKGGYTLVSGYPKRLEKEVGTPHGIILDSVDAAFICPGSSRLHIMAGRRLWWLDLKSGAQATWTELPWPHEKVDGALCMEKSLGPNSCSANGPGLYLIHGPNLYCYSDVEKLNAAKALPQPQNVTSLLGCTH
SS mice [5]
  protection from heme induced lethality: all protected
SS mice [5]; listed as rhHx
  protection from heme induced lethality: protects
